The results in this text go back to US11840560B2, “Prodrugs and uses thereof” (Novo Nordisk A/S, priority 2022, dated 2023).

*1 amine or outer side, *2 acyl side, *3 side chain or, on linkers, in order; H or OH if unused. Where a SMILES comes first, the peptide text is derived from it. Side-chain parts run from the residue outwards. [ ]: non-standard residue; d: D form. The star is where a group is joined. X1 = O=C(O)CCCCCCCCCCCCCCC(=O)N[C@@H](CCC(=O)NCCCC[C@H](NC(=O)CC[C@H](NC(=O)CCCCCCCCCCCCCCC(=O)O)C(=O)O)C(=O)*)C(=O)O; N(2-Aminoethyl)Gly = O=C(CN(CCN[*:3])[*:1])[*:2]; C18 diacid = O=C(O)CCCCCCCCCCCCCCCCC(=O)*; C16 diacid = O=C(O)CCCCCCCCCCCCCCC(=O)*; γGlu = O=C(O)[C@H](CCC(=O)[*:2])N[*:1]; εLys = N[C@@H](CCCCN[*:1])C(=O)[*:2]; AEEA = NCCOCCOCC(=O)O; Aib = CC(C)(N)C(=O)O; Sar = CNCC(=O)O

One data set can be described thus: in vivo. To be noted: dog, po, 300 mg; for Tmax / half-life: male, beagle. The arrangement: species or system beagle dogs. As to the method: The purpose of this method is to determine the terminal half-life and plasma exposure in vivo of the compounds of the present invention after p.o. administration to beagle dogs, i.e. the terminal half-life and concentration of test substance that reaches circulation with time. This is done in a pharmacokinetic (PK) study, where these parameters of the compound in question are determined. By terminal half-life is generally meant the period of time it takes to halve a certain plasma concentration, measured after the initial distribution phase.
Tablet compositions comprising the test compounds obtained from Example 1 and SNAC (sodium N-(8-(2-hydroxybenzoyl)amino)caprylate) were prepared according to methods known to the person skilled in the art by mixing test substance with roller compacted SNAC and magnesium stearate as e.g. described in WO 2019/149880. Each tablet was comprised of 7.7 mg magnesium stearate, 2-4 mg of each compound tested, and 300 mg SNAC.
Male beagle dogs, 1-7 years of age and weighing 9-17 kg during the study period, were included in the study. The dogs were dosed in a fasting state. The dogs were group housed in pens (12 hours light: 12 hours dark), and fed individually and restrictedly once daily with Royal Canin Medium Adult dog food (Royal Canin Products, China Branch, or Brogaarden A/S, Denmark). The dogs were used for repeated PK studies with a suitable wash-out period between successive dosing. An appropriate acclimatisation period was given prior to initiation of the first PK study. All handling, dosing, and blood sampling of the animals were performed by trained and skilled staff. Before the studies, the dogs were fasted overnight and from 0 to 4 hours after dosing. The dogs were restricted to water 1 hour before dosing until 4 hours after dosing, but otherwise had adlibitum access to water during the whole period.
The compositions were administered by a single oral dosing to the dogs in groups of 6-8 dogs. The tablets were administered in the following manner: 10 min prior to tablet administration, the dogs may be dosed subcutaneously with approximately 3 nmol/kg of SEQ ID NO.: 7 ([…]), then tablets were placed in the back of the mouth of the dog to prevent chewing. The mouth was then closed, and 10 mL of tap water was given by syringe or gavage to facilitate swallowing of the tablet.
One blood sample was drawn before dosing, and additional samples were drawn at predefined time points after dosing, such as for up to 600 hours, to adequately cover the full plasma concentration-time absorption profile of the test substance. For each blood sample time point, approximately 0.8 mL of whole blood was collected in a 1.5 mL EDTA-coated tube, which was gently turned to mix the sample with EDTA. Blood samples were collected in EDTA buffer (8 mM) and then centrifuged at 4° C. and 2000 g for 10 minutes. Plasma was pipetted into Micronic tubes on dry ice, and kept at −20° C. or lower until analysis. Blood samples were taken as appropriate, for example from a venflon in the cephalic vein in the front leg for the first 2 hours and then with syringe from the jugular vein for the rest of the time points. The first few drops were allowed to drain from the venflon to avoid heparin saline from the venflon in the sample. All blood samples were collected into test tubes containing EDTA for stabilisation and kept on ice until centrifugation. Plasma was separated from whole blood by centrifugation and the plasma was stored at −20° C. or lower until analysis.
The plasma was analysed for test substance using LC-MS (Liquid Chromatography-Mass Spectrometry) as known to the person skilled in the art. […]

A further data set in a line: physchem. The class given is physicochemical. As to conditions: buffer, pH 7.4. As to the method:
The assay was performed to investigate the conversion half-life of prodrug to drug of the prodrugs of the invention. The conversion half-life was investigated in vitro at pH 7.4 upon incubation at 37° C.
Test compounds were dissolved to a concentration of 100 μM in phosphate-buffered saline (140 mM NaCl, 2.07 mM KCl, 8.05 mM Na2HPO4, 1.96 mM KH2PO4, pH 7.4). Solution pH was measured after dissolution and adjusted to pH 7.4 with aqueous NaOH if necessary. The solution was filtered through a 0.22 μm syringe filter, then incubated in a water bath at 37° C. Aliquots were withdrawn at defined timepoints, e.g. every 24-72 hours, for LCMS analysis.
LCMS analysis was performed using the procedure defined in LCMS_A above. The AUC of the prodrug, active drug, and DKP were determined using UV detection at 214 nm, and the ratio of prodrug AUC over total AUC of prodrug plus active drug plus DKP was calculated. The negative natural logarithm of this ratio was plotted over time, and a linear regression of this relationship was then performed.
The prodrug to drug conversion half-life of the compounds of the invention was measured as described in General Methods for Measuring Conversion Half-life.

Consider `CC[C@H](C)[C@H](NC(=O)[C@H](Cc1ccccc1)NC(=O)[C@H](CCC(=O)O)NC(=O)[C@H](CCCNC(=N)N)NC(=O)[C@H](C)NC(=O)[C@H](C)NC(=O)[C@H](CCC(N)=O)NC(=O)[C@H](CCC(=O)O)NC(=O)[C@H](CCC(=O)O)NC(=O)[C@H](CC(C)C)NC(=O)[C@H](CC(C)C)NC(=O)[C@@H](NC(=O)[C@H](CO)NC(=O)[C@H](Cc1ccc(O)cc1)NC(=O)[C@H](CC(=O)O)NC(=O)[C@H](CO)NC(=O)[C@@H](NC(=O)[C@H](Cc1ccccc1)NC(=O)[C@@H](NC(=O)CNC(=O)[C@H](CCC(=O)O)NC(=O)C(C)(C)NC(=O)[C@@H](N)Cc1ccc(O)cc1)[C@@H](C)O)[C@@H](C)O)[C@@H](C)CC)C(=O)N[C@@H](CCC(=O)O)C(=O)N[C@@H](Cc1c[nH]c2ccccc12)C(=O)N[C@@H](CC(C)C)C(=O)N[C@@H](CC(C)C)C(=O)N[C@@H](C)C(=O)NCC(=O)NCC(=O)N1CCC[C@H]1C(=O)N[C@@H](CO)C(=O)N[C@@H](CCCCNC(=O)[C@@H](N)CCCCNC(=O)[C@@H](N)CCCCNC(=O)CC[C@H](NC(=O)CCCCCCCCCCCCCCCCC(=O)O)C(=O)O)C(=O)NCC(=O)N[C@@H](C)C(=O)N1CCC[C@H]1C(=O)N1CCC[C@H]1C(=O)N1CCC[C@H]1C(=O)N[C@@H](CO)C(=O)O` [Parent compound 3] (H-Y[Aib]EGTFTSDYSILLEEQAAREFIEWLLAGGPSK([εLys-εLys-γGlu-C18 diacid])GAPPPS-OH), for which, in “in vivo”, the AUC/Dose was 21.4 kg·h/L and the Cmax/Dose was 0.22 kg/L.
By Tmax is commonly meant the time at which the peak concentration occurs. In general, half-life refers to the time needed for the level to fall by half in the phase considered. Lower therefore signals fast loss. On to “H-K(X1)[Sar]Y[Aib]EGTFTSDYSILLEEQAAREFIEWLLAGGPSK([εLys-εLys-γGlu-C16 diacid])GAPPPS-OH [Compound 14]”, for which, in the data set “in vivo”, the AUC/Dose came out at 43.6 kg·h/L, the Cmax/Dose came to 0.38 kg/L, the time to peak (Tmax) is 5.5 h and the half-life was 119 h. The molecule further gave a half-life at 100 μM in “physchem” of 166 h.
In “physchem”, “H-D[N(2-Aminoethyl)Gly]([γGlu-C16 diacid])Y[Aib]EGTFTSDYSILLEEQAAREFIEWLLAGGPSK([AEEA-AEEA-γGlu-C16 diacid])GAPPPS-OH [Compound 7]” showed a half-life at 100 μM of 38 h.
Take “H-K([γGlu-C16 diacid])VY[Aib]EGTFTSDYSILLEEQAAREFIEWLLAGGPSK([εLys-εLys-γGlu-C16 diacid])GAPPPS-OH [Non-converting compound 2]”: in “in vivo”, the AUC/Dose came to 10.8 kg·h/L, the Cmax/Dose was 0.13 kg/L, the Tmax stood at 1.3 h and the half-life is 130 h.
`CC[C@H](C)[C@H](NC(=O)[C@H](CC(C)C)NC(=O)[C@H](Cc1c[nH]c2ccccc12)NC(=O)[C@H](CCC(N)=O)NC(=O)[C@@H](NC(=O)[C@H](Cc1ccccc1)NC(=O)[C@H](C)NC(=O)[C@H](CCCCNC(=O)COCCOCCNC(=O)COCCOCCNC(=O)CC[C@H](NC(=O)CCCCCCCCCCCCCCCCCCC(=O)O)C(=O)O)NC(=O)[C@H](CCC(N)=O)NC(=O)[C@H](C)NC(=O)[C@@H](NC(=O)[C@H](CCCCN)NC(=O)[C@H](CC(=O)O)NC(=O)[C@H](CC(C)C)NC(=O)C(C)(C)NC(=O)[C@@H](NC(=O)[C@H](CO)NC(=O)[C@H](Cc1ccc(O)cc1)NC(=O)[C@H](CC(=O)O)NC(=O)[C@H](CO)NC(=O)[C@@H](NC(=O)[C@H](Cc1ccccc1)NC(=O)[C@@H](NC(=O)CNC(=O)[C@H](CCC(=O)O)NC(=O)C(C)(C)NC(=O)[C@H](Cc1ccc(O)cc1)NC(=O)[C@@H](NC(=O)[C@@H](N)CCCCNC(=O)CC[C@H](NC(=O)CCCCCCCCCCCCCCC(=O)O)C(=O)O)C(C)C)[C@@H](C)O)[C@@H](C)O)[C@@H](C)CC)[C@@H](C)CC)C(C)C)C(=O)N[C@@H](C)C(=O)NCC(=O)NCC(=O)N1CCC[C@H]1C(=O)N[C@@H](CO)C(=O)N[C@@H](CO)C(=O)NCC(=O)N[C@@H](C)C(=O)N1CCC[C@H]1C(=O)N1CCC[C@H]1C(=O)N1CCC[C@H]1C(=O)N[C@@H](CO)C(N)=O` [Non-converting compound 4]: in “in vivo”, the AUC/Dose turned out to be 18.9 kg·h/L, the Cmax/Dose is on record as 0.16 kg/L, the Tmax was found to be 7 h and the half-life was 136 h.
The corresponding values for “H-K([γGlu-C16 diacid])VY[Aib]EGTFTSDYSILLEK([εLys-εLys-γGlu-C18 diacid])QAAREFIEWLLAGGPSSGAPPPS-OH [Non-converting compound 3]” are 31.4 kg·h/L, 0.27 kg/L, 4 h and 115 h.
“H-[dK]([εLys-γGlu-C16 diacid])[Sar]Y[Aib]EGTFTSDYSILLEEQAAREFIEWLLAGGPSK([AEEA-AEEA-γGlu-C16 diacid])GAPPPS-OH [Compound 11]” gave a half-life at 100 μM in the data set “physchem” of 182 h.
Turning to `CC[C@H](C)[C@H](NC(=O)[C@H](CC(C)C)NC(=O)[C@H](Cc1c[nH]c2ccccc12)NC(=O)[C@H](CCC(N)=O)NC(=O)[C@@H](NC(=O)[C@H](Cc1ccccc1)NC(=O)[C@H](C)NC(=O)[C@H](CCCCNC(=O)COCCOCCNC(=O)COCCOCCNC(=O)CC[C@H](NC(=O)CCCCCCCCCCCCCCCCCCC(=O)O)C(=O)O)NC(=O)[C@H](CCC(N)=O)NC(=O)[C@H](C)NC(=O)[C@@H](NC(=O)[C@H](CCCCN)NC(=O)[C@H](CC(=O)O)NC(=O)[C@H](CC(C)C)NC(=O)C(C)(C)NC(=O)[C@@H](NC(=O)[C@H](CO)NC(=O)[C@H](Cc1ccc(O)cc1)NC(=O)[C@H](CC(=O)O)NC(=O)[C@H](CO)NC(=O)[C@@H](NC(=O)[C@H](Cc1ccccc1)NC(=O)[C@@H](NC(=O)CNC(=O)[C@H](CCC(=O)O)NC(=O)C(C)(C)NC(=O)[C@@H](N)Cc1ccc(O)cc1)[C@@H](C)O)[C@@H](C)O)[C@@H](C)CC)[C@@H](C)CC)C(C)C)C(=O)N[C@@H](C)C(=O)NCC(=O)NCC(=O)N1CCC[C@H]1C(=O)N[C@@H](CO)C(=O)N[C@@H](CO)C(=O)NCC(=O)N[C@@H](C)C(=O)N1CCC[C@H]1C(=O)N1CCC[C@H]1C(=O)N1CCC[C@H]1C(=O)N[C@@H](CO)C(N)=O` [Parent compound 5], in “in vivo”, the AUC/Dose turned out to be 13.0 kg·h/L, the Cmax/Dose is 0.22 kg/L, the Tmax came out at 1 h and the half-life was 134 h.
Consider “H-K([γGlu-γGlu-C16 diacid])[Sar]Y[Aib]EGTFTSDYSILLEEQAAREFIEWLLAGGPSK([AEEA-AEEA-γGlu-C16 diacid])GAPPPS-OH [Compound 8]”, for which the half-life at 100 μM in “physchem” is 125 h.
In the case of “H-G[N(2-Aminoethyl)Gly]([γGlu-C16 diacid])Y[Aib]EGTFTSDYSILLEK([εLys-εLys-γGlu-C18 diacid])QAAREFIEWLLAGGPSSGAPPPS-OH [Compound 17]”, in “in vivo”, the AUC/Dose is 30.4 kg·h/L, the Cmax/Dose amounted to 0.30 kg/L, the Tmax was determined as 1.5 h and the half-life was 105 h.
In the case of “H-A[N(2-Aminoethyl)Gly]([γGlu-C16 diacid])Y[Aib]EGTFTSDYSILLEEQAAREFIEWLLAGGPSK([AEEA-AEEA-γGlu-C16 diacid])GAPPPS-OH [Compound 4]”, the half-life at 100 μM in the data set “physchem” was 97 h.
Molecule “H-P[N(2-Aminoethyl)Gly]([γGlu-C16 diacid])Y[Aib]EGTFTSDYSILLEEQAAREFIEWLLAGGPSK([AEEA-AEEA-γGlu-C16 diacid])GAPPPS-OH [Compound 6]” had a half-life at 100 μM in the data set “physchem” of 440 h.
